Literature values in patent US11992559B2, “Microsphere formulations comprising lurasidone and methods for making and using the same” (Oakwood Laboratories, LLC, priority 2021, dated 2024).
Where a name gives a salt, the structure may show the parent alone.

How the values were obtained:
[1] = at 25° C.

solubility in benzyl alcohol (benzyl alcohol): 69.19 mg/g | solubility in dichloromethane (dichloromethane): 24.43 mg/g | water solubility (water): 224 µg/mL | specific hydrophobicity log Pow [1]: 5.6
Compound: O=C1[C@@H]2[C@H]3CC[C@H](C3)[C@@H]2C(=O)N1C[C@@H]1CCCC[C@H]1CN1CCN(c2nsc3ccccc23)CC1 [lurasidone HCl, Lurasidone]
